Our source for the EC50 and intracellular lipid accumulation values is US20170252350A1, “SMALL MOLECULE IRE1-ALPHA INHIBITORS” (Cornell University, priority 2016, published 2017).

A word on the EC50: it is the midpoint of the concentration-response curve. A high value points to a need for much substance.

One assay addresses T1, IRE1α (Homo sapiens, UniProt O75460).
T1 construct: purchased SignalChem
Kind of assay: In vitro FRET assay of IRE1α endoribonuclease activity (XBP1 RNA hairpin probe). The assay is classed as biochemical. As to conditions: SignalChem IRE1α protein 2 nM, fluorescence read over 30 minutes. From the text:
To evaluate potential small molecule IRE1 inhibitors, a Förster resonance energy transfer (FRET)-based small molecule IRE1 screening system was used. In brief, a small XBP1-mimetic RNA hairpin containing sequence features required for IRE1α-mediated splicing has been synthesized with the fluorophore 6FAM attached to the 5′ end and the quenching dye Black Hole Quencher 1 (BHQ1) attached to the 3′ end. When the hairpin is intact, 6FAM fluorescence is completely absorbed by BHQ1; however, IRE1α-mediated cleavage of the RNA hairpin leads to an increase in the fluorescence signal. The inventors also incorporated a point mutant version of this same RNA hairpin that is resistant to IRE1α-mediated cleavage to control for non-specific RNAse contamination (FIG. 2).
To perform the in vitro FRET assay, 1× complete assay buffer (CAB; […], 50 mM sodium citrate pH 7.15, 1 mM magnesium acetate, 0.02% tween 20) was used to dilute SignalChem IRE1α protein to a final concentration of 2 nM. Selected compounds were serially diluted with DMSO in a non-binding black 384-well plate for a total of 15 μl in each well. 2 μl of the serially diluted compound or DMSO control were then added to new wells containing 98 μl of 1×CAB, for a total volume of 100 μl, 10 μl of which were then transferred to wells of a new plate. 5 μof the diluted IRE1α was then added to each well. 5 μl of a […] XBP1 RNA probe was then added to each well. Fluorescence was then read over 30 minutes in kinetic mode (485/515 nm).
Two RNA probes were used, XBP1 wildtype (CAUGUCCGCAGCACAUG; SEQ ID NO: 1) which is able to be spliced by active IRE1α or XBP1 mutant (CAUGUCCCCAGCACAUG; SEQ ID NO: 2) which is unable to be spliced. Each probe contained a 5′ 6-FAM modification and a 3′ IOWA Black FQ modification, […]

The test system of the next assay is myeloid dendritic cells. Kind of assay: Lipid accumulation (BODIPY 493/503) in myeloid dendritic cells exposed to ovarian cancer ascites supernatants. The assay is classed as cell-based, mouse.

Values joined by “and” are separate entries in the source; they are usually repeats but may differ in a detail not shown here. Equal values may be shown once.

T1 sequence (O75460 19-977): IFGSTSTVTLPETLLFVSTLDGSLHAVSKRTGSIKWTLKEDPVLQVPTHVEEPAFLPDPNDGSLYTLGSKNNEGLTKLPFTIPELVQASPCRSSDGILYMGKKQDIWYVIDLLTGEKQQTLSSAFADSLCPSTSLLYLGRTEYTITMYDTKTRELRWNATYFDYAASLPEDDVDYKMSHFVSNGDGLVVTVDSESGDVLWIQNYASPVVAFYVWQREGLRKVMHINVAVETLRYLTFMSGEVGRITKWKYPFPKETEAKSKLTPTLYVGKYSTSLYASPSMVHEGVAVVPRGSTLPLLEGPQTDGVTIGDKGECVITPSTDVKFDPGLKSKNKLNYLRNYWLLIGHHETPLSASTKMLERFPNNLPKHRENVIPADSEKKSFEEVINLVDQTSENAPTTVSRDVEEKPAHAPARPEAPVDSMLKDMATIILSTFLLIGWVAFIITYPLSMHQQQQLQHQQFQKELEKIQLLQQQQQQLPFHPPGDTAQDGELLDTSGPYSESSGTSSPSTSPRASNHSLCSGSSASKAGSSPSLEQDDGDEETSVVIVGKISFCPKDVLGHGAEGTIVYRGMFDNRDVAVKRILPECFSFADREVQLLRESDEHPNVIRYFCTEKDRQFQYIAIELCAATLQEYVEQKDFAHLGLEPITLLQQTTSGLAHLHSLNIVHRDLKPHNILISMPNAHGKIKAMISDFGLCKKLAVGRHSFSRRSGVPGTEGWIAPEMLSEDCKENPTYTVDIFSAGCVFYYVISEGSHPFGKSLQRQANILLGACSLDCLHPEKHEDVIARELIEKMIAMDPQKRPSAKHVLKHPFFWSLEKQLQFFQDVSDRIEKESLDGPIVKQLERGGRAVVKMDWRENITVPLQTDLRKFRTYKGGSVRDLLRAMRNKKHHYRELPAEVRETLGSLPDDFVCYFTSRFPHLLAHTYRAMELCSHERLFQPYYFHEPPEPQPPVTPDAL
Excerpt for myeloid dendritic cells: FIG. 1D is flow cytometry analysis of lipid accumulation in mouse bone marrow-derived dendritic cells exposed to the indicated treatments, measured by BODIPY 493/503 staining intensity. Both raw data and quantified geometric mean fluorescence intensity (MFI) are shown.

For `CN1CCN(Cc2ccc(NC(=O)Nc3cc(C#Cc4cccnc4)n(C)n3)cc2C(F)(F)F)CC1` [Compound A1], the EC50 at IRE1α is ≤ 5 µM.

For `CN1CCN(Cc2ccc(NC(=O)Nc3cc(C#Cc4ccc(N)nc4)n(C)n3)cc2C(F)(F)F)CC1` [Compound A2], the EC50 on IRE1α is ≤ 5 µM. Regarding `CN1CCN(Cc2ccc(NC(=O)Nc3cc(C#Cc4cnc5cccnn45)n(C)n3)cc2C(F)(F)F)CC1` [Compound A3], the EC50 at IRE1α was ≤ 5 µM. Same read-out and setting: to `CN1CCN(Cc2ccc(NC(=O)Nc3cc(C#Cc4cnc5ccccn45)n(C)n3)cc2C(F)(F)F)CC1` [Compound A4] belongs ≤ 5 µM; to `CN1CCN(Cc2ccc(NC(=O)Nc3cc(C#Cc4cnc5cnccn45)n(C)n3)cc2C(F)(F)F)CC1` [Compound A5], ≤ 5 µM. Regarding `CN1CCN(Cc2ccc(NC(=O)Nc3cc(C#Cc4cncc5nccn45)n(C)n3)cc2C(F)(F)F)CC1` [Compound A6], at IRE1α, the EC50 was ≤ 5 µM.

In turn, `CN1CCN(Cc2ccc(NC(=O)Nc3cc(C#Cc4ccnc(N)c4)n(C)n3)cc2C(F)(F)F)CC1` [Compound A7] showed a half-maximal effective concentration (EC50) on IRE1α of 5 to 50 µM.

As for `COc1cc(C#Cc2cc(NC(=O)Nc3ccc(CN4CCN(C)CC4)c(C(F)(F)F)c3)nn2C)ccn1` [Compound A8], the EC50 at IRE1α was ≤ 5 µM and 5 to 50 µM.

In the case of `CN1CCN(Cc2ccc(NC(=O)Nc3cc(C#Cc4cnc(N)cn4)n(C)n3)cc2C(F)(F)F)CC1` [Compound A9], the EC50 on IRE1α was ≤ 5 µM. Regarding `CN1CCN(Cc2ccc(NC(=O)Nc3cc(C#Cc4ccncc4)n(C)n3)cc2C(F)(F)F)CC1` [Compound A10], on IRE1α, the EC50 is ≤ 5 µM. For `CN1CCN(Cc2ccc(NC(=O)Nc3cc(C#Cc4cc(N)[nH]n4)n(C)n3)cc2C(F)(F)F)CC1` [Compound A11], the EC50 on IRE1α was ≤ 5 µM.

`CN1CCN(Cc2ccc(NC(=O)Nc3cc(C#Cc4cn[nH]c4)n(C)n3)cc2C(F)(F)F)CC1` [Compound A12]: the EC50 at IRE1α was ≤ 5 µM. In the case of `CN1CCN(Cc2ccc(NC(=O)Nc3cc(C#Cc4cncn4C)n(C)n3)cc2C(F)(F)F)CC1` [Compound A13], the EC50 at IRE1α is ≤ 5 µM.

As for `CN1CCN(Cc2ccc(NC(=O)Nc3cc(C#Cc4n[nH]c5cccnc45)n(C)n3)cc2C(F)(F)F)CC1` [Compound A14], the half-maximal effective concentration (EC50) on IRE1α was ≤ 5 µM. Same read-out and setting: to `CN1CCN(Cc2ccc(NC(=O)Nc3cc(C#Cc4cc[nH]c(=O)c4)n(C)n3)cc2C(F)(F)F)CC1` [Compound A15] belongs 5 to 50 µM.

In the case of `CN1CCN(Cc2ccc(NC(=O)Nc3cc(C#Cc4ccccn4)n(C)n3)cc2C(F)(F)F)CC1` [Compound A16], on IRE1α, the EC50 is ≤ 5 µM. For the molecule `CN1CCN(Cc2ccc(NC(=O)Nc3cc(C#Cc4ccc(C#N)nc4)n(C)n3)cc2C(F)(F)F)CC1` [Compound A17], the EC50 at IRE1α was ≤ 5 µM. As for `CN1CCN(Cc2ccc(NC(=O)Nc3cc(C#Cc4ccc(N)cc4)n(C)n3)cc2C(F)(F)F)CC1` [Compound A18], the EC50 at IRE1α fell in the range of 50 to 100 µM.

As for `CN1CCN(Cc2ccc(NC(=O)Nc3cc(C#Cc4cnccn4)n(C)n3)cc2C(F)(F)F)CC1` [Compound A19], at IRE1α, the EC50 was ≤ 5 µM. Turning to `Cn1nc(NC(=O)Nc2cccc(C(F)(F)F)c2)cc1C#Cc1ccc(N)nc1` [Compound A20], the EC50 on IRE1α was ≤ 5 µM. With `CN1CCN(Cc2ccc(NC(=O)Nc3cc(C#Cc4cncc(N)c4)n(C)n3)cc2C(F)(F)F)CC1` [Compound A21], the EC50 on IRE1α is ≤ 5 µM. `Cn1nc(NC(=O)Nc2ccc(CN3CCN(CCO)CC3)c(C(F)(F)F)c2)cc1C#Cc1ccc(N)nc1` [Compound A22]: the EC50 on IRE1α was ≤ 5 µM. With `CN1CCN(Cc2ccc(NC(=O)Nc3nnc(C#Cc4ccc(N)nc4)s3)cc2C(F)(F)F)CC1` [Compound A23], the EC50 on IRE1α was ≤ 5 µM.

In turn, `Cn1nc(NC(=O)Nc2ccc(CN3CCCCC3)c(C(F)(F)F)c2)cc1C#Cc1ccc(N)nc1` [Compound A24] returned an EC50 on IRE1α of 5 to 50 µM. The same measure, in the same setting: to `Cn1nc(NC(=O)Nc2ccc(CN3CCOCC3)c(C(F)(F)F)c2)cc1C#Cc1ccc(N)nc1` [Compound A25] belongs 5 to 50 µM. For the molecule vitamin E, the intracellular lipid accumulation result in the assay on myeloid dendritic cells is on record as “suppressed”.
